The conditions of series [1]: in words; cited from earlier work.
Series [2] in a line: Retention and release of dyes from PE-PEG matrix into phosphate buffered saline. Format: physicochemical. Particulars: dye only, tube 10. The protocol: Method: C50 PE-PEG16 was blended with PLURONIC™ L44 in a ratio of 7:3 w/w as described in Example 3. Rose Bengal (100 mg) and SR24 (100 mg) were mixed with 5 g aliquots of molten PE-PEG and PE-PEG/poloxamer blend, and maintained at 110° C. with mixing until the dye was fully dissolved.
Ten small (6 ml) glass test tubes were prepared as shown in Tables 5-6, Tubes 4-7 contained 0.5 g of the PE-PEG and PE-PEG/polymer samples mixed with dye, tubes 2, 3, 8 and 9 contained 0.5 g PE-PEG and PE-PEG/polymer samples (without dye) and 10 mg of dye added separately (after the PE-PEG or blend had solidified), tubes 1 and 10 contained only the dye, as controls.
Each glass test tube was affixed to the inside of a 50 ml polypropylene centrifuge tube with a silicone adhesive. Fifty ml of phosphate buffered saline was added to each of the tubes, and they were rocked gently for six days. At appropriate time points, the concentration of dye in the buffer was measured using a spectrophotometer. The SR24 dye was measured at 516 nm, the Rose Bengal concentration was estimated from the maximal absorption λmax from 540 nm to 560 nm.

Like-named read-outs stand apart in the source and are kept apart here.

In the case of `Cc1ccccc1/N=N/c1ccc(/N=N/c2c(O)ccc3ccccc23)c(C)c1` [SR24, Solvent Red 24], the solubility in water entry in series [1] is given as “negligible solubility”; in series [2], “zero solubility”.

Values taken from patent US8455000B2, “Resorbable polymer compositions for use in medicine, dentistry, and surgery” (Syncera Inc., priority 2006, dated 2013).
